Measured values from US20240166630A1, “INDOLE DERIVATIVES AS SEROTONERGIC AGENTS USEFUL FOR THE TREATMENT OF DISORDERS RELATED THERETO” (Mindset Pharma Inc., priority 2021, published 2024).
pIC50: −log10 of the molar value.

Experiments:
[1] = molecular target: human 5-HT2A (Homo sapiens, UniProt P28223); experiment: Radioligand binding assay on human 5-HT2A receptor ([3H]-ketanserin)
Experimental: i. The assay buffer was prepared following the table below;
iii. Prepared (v/v) DMSO as follows: a. […] The plates were sealed and incubated at 4° C. for 3 hrs;
iv. Preparation of assay plates: a.
vi. The plates were sealed and incubated at 27° C. for 90 min.

[2] = Liver microsomes stability with NADPH, rat

Chain of human 5-HT2A (P28223 whole entry): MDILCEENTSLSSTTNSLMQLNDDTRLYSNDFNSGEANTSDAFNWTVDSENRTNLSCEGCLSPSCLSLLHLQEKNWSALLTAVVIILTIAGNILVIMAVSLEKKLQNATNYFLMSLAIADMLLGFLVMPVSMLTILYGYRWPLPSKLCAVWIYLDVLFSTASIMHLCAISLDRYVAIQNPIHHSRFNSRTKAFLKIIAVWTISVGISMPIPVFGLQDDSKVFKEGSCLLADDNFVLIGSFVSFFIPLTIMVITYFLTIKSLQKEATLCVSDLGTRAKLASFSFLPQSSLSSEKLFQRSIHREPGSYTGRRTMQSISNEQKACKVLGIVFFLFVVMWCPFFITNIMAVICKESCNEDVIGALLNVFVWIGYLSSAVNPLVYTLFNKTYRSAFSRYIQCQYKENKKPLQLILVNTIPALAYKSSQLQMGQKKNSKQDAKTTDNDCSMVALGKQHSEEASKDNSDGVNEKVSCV

Q: Which results are given for `[2H]C([2H])(c1c[nH]c2ccccc12)[C@H]1CCCN1C([2H])([2H])[2H]` [I-B-1, (R)-3-((1-(methyl-d3)pyrrolidin-2-yl)methyl-d2)-1H-indole]?
A: pIC50 [1]: > 6.30; Remaining Percentage (%) after 60 min Rat ([2]; rat liver microsomes, with NADPH, 2 μM): 32.40%; half-life at 2 μM ([2]; rat, microsomes): 36.9 min; microsomal CLint at 2 μM ([2]; rat, microsomes): 37.6 µL/min/mg
